# Data taken from paper PMC4494927, “Discovery of a small molecule targeting SET-PP2A interaction to overcome BCR-ABLT315I mutation of chronic myeloid leukemia” (Oncotarget, 2015).
# Columns and labels:
# [1] = system: K562 cells expressing SET shRNA; assay: Cytotoxicity in K562 cells with stable SET knock-down (shRNA); type: cell-based, human; conditions: SET knock-down vs control K562 cells
# Description: (§1) Twenty types of tumor cell lines were seeded at 4000 cells per well in 96-well plates. TGI1002 dissolved in phosphate saline was added to cells at final concentrations ranging from 0.5 nM to 100 μM for 120 h. Cell viability was measured with the CellTiter-Glo Luminescent Cell Viability Assay (Promega) according to the manufacturer's instructions. Luminescence was measured using an EnVision Multilabel Plate Reader (Perkin-Elmer). The cytotoxicity of TGI1002 was expressed as the percentage of luminescence relative to that of untreated cells.
# Lentivirus-encoded shRNA against human SET (GenBank No.: NM_003011) and a noncoding gene (negative control) were prepared by Genechem and titered to 2 × 10^8 (TU/mL). K562 cells (1 × 10^4 cells/well) were seeded in 96-well plates overnight before transfection. The virus (10 μL) was mixed with 90 μL complete medium containing polybrene (5 μg/mL) and added to cells and incubated for 12 h at 37 °C. Then, the cells were incubated in fresh complete RPMI 1640 medium for 72 h, followed by incubation in complete medium containing puromycin (5 μg/mL). After 2 weeks of selection, individual clones were isolated, passaged and harvested for subsequent studies. Identification of stable SET-knockdown K562 cell line was performed by Western blotting. Effects of TGI1002 on cell viability of SET-knockdown K562 cells were studied as described above.
# SET-PP2A interaction = target: T1, SET-PP2A interaction (Homo sapiens, UniProt Q01105); assay: Co-immunoprecipitation of SET and PP2Ac in K562 cells; type: cell-based; conditions: 24 h
# T1 construct: SET and PP2Ac protein complexes were immunoprecipitated; endogenous in cells; host or cells: K562
# Description: (§2) Protein samples (40 μg) were resolved on SDS-PAGE gels, transferred onto PVDF membranes (Millipore) and incubated overnight with primary antibodies to β-tubulin, BCR-ABL, p-BCR-ABL, SET, PP2Ac and p-PP2Ac. The membranes were incubated with horseradish peroxidase (HRP)-conjugated secondary antibody for 1 h, and the bands were visualized using an ECL detection kit following the manufacturer's instructions. For immunoprecipitation, cells were lysed in 20 mM Tris-HCl (pH 7.0), 150 mM NaCl, 1 mM EDTA, 1 mM MgCl and 0.5% NP-40 supplemented with a cocktail of protease and phosphatase inhibitors (Roche). Lysates (200 μg) were incubated with primary antibodies (1 μg) against SET or PP2Ac at 4 °C for 10 h, protein A/G plus agarose beads were then added for immunoprecipitation overnight at 4 °C. After wash, the immunoprecipitated proteins were separated by SDS-PAGE and analyzed by Western blotting.
# tubulin = assay: Microtubule assembly assay in K562 cells; type: cell-based, human; conditions: 24 h
# Description: Separation of insoluble polymerized tubulin from soluble tubulin dimers and analysis of the effects of TGI1002 on tubulin polymerization were performed as described previously. In brief, K562 cells at a density of 1 × 10^6/100 mm^2 dishes were treated with indicated concentrations of TGI1002 at 24 h. Cells were washed with PBS for three times before adding polymerization lysate buffer containing 20 mM Tris-HCl (pH6.8), 1 mM MgCl2, 2 mM EGTA, […] aprotinin, […] leupeptin, 1 mM phenylmethylsulfonyl fluoride, 1 mM orthovanadate and 0.5% Nonidet. After centrifugation at 15,000 x g for 10 min at 4 °C, the pellets were resuspended in SDS-PAGE loading buffer and dissolved by heating at 95 °C for 10 min. Beta-tubulin was then Western blotted from both pellets (containing polymerized microtubules) and supernatants (containing depolymerized microtubules).
# BaF3-p210^T315I cells = assay: Cytotoxicity assay (CellTiter-Glo); type: cell-based, murine; conditions: Mus musculus; TKI-resistant BaF3-p210^T315I cells, cell viability
# Description: as §1
# BCR-ABL = assay: Western blot of BCR-ABL expression in K562 cells; type: cell-based, human
# Description: as §2
# PC-3 cells = assay: Cytotoxicity assay (CellTiter-Glo); type: cell-based, human; conditions: 120 h, panel of 20 tumor cell lines
# Description: as §1
# HT-29 cells = assay: Cytotoxicity assay (CellTiter-Glo); type: cell-based, human; conditions: 120 h, panel of 20 tumor cell lines
# Description: as §1
# PP2A = assay: PP2Ac immunoprecipitation phosphatase assay in K562 cells; type: cell-based, human; conditions: 10 μM, 24 h
# Description: PP2A assay from whole cell lysates was carried out using commercial PP2Ac immunoprecipitation phosphatase assay kit (Millipore). Briefly, 200 μg protein lysates prepared as described above, 4 μg PP2Ac-specific antibody, and 40 μL protein A-agarose were added to TBS buffer (20 mM Tris-HCl, 150 mM NaCl, and 0.1% Tween 20) to a final volume of 500 μL and immunoprecipitation was carried out at 4 °C for 2 h. The immunoprecipitates were used in the phosphatase reaction following the manufacturer's protocol.
# [2] = target: T2, recombinant human SET protein (Homo sapiens, UniProt Q01105); assay: Microscale thermophoresis (MST) binding to NT647-labeled SET; conditions: 15 μM NT647-labeled SET, PBS pH 8.0, 25 °C
# T2 construct: Genes encoding the full length of human SET (GenBank No.: AAA60318.1) was synthesized; made in house; host or cells: E. coli (pET-21a)
# Description: Thermophoresis analysis was performed during 30 s on a NanoTemper Monolith NT.115 instrument (20% LED, 40% MST power) at 25 °C.
# T1 sequence (Q01105 whole entry): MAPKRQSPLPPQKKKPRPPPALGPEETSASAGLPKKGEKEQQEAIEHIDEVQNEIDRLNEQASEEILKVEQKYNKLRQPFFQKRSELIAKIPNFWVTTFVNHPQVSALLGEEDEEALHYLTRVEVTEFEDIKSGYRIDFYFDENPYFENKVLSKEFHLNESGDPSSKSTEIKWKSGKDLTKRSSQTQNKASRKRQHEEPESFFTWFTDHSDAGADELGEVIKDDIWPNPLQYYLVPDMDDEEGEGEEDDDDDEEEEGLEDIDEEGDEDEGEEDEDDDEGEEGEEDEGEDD
# T2 sequence (Q01105 1-277 isoform Q01105-2): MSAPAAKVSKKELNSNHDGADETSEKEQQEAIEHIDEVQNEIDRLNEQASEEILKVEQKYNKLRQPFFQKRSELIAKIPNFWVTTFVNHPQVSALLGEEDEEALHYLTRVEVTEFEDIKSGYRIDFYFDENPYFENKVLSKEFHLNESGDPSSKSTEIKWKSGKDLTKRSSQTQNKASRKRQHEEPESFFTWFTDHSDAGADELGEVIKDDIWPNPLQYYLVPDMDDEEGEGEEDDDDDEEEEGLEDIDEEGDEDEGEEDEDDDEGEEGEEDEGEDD
structure (smiles),measurement,setting,value
"Cc1ccc(NC(=O)c2cccc(CN3CCN(C)CC3)c2)cc1Oc1nccc(-c2cccnc2)n1.Cl [TGI1002, N-(4-methyl-3-((4-(pyridin-3-yl)-pyrimidin-2-yl)oxy)phenyl)-3-((4-methylpiperazin-1-yl)methyl)benzamide hydrochloride]",sensitivity of K562 cells to treatment after SET-specific shRNA,[1],decreased the sensitivity
same,association between SET and PP2A,SET-PP2A interaction,trend of decrease
same,amounts of tubulin in depolymerized fraction S and polymerized fraction P,tubulin,not affected
same,IC50,BaF3-p210^T315I cells,14.7 ± 2.61 µM
same,expression level of BCR-ABL,BCR-ABL,not affected
same,cytotoxicity,PC-3 cells,cytotoxic effects
same,cytotoxicity,HT-29 cells,cytotoxic effects
same,PP2A activity enhanced compared to untreated cells,PP2A,144.67 ± 5.51%
same,Kd,[2],1.66 ± 0.45 µM
